Measurements reported in US10912767B2, “Anthracycline prodrugs and methods of making and using the same” (THE REGENTS OF THE UNIVERSITY OF COLORADO, priority 2015, dated 2021).

Assay: Photolysis timecourses, near UV blacklight 350 nm, HPLC
Type: physicochemical
Text: In order to investigate the photolysis of the drugs in a system amenable to cell culture use, a custom UV irradiation apparatus was constructed, consisting of 3 small blacklight fluorescent bulbs (Southern New England Ultraviolet Co., λmax=350 nm) set between two ring stands and suspended at a height of 11.5 cm. The bulbs' housing was reflective aluminum so as to direct as much UV irradiation as possible downward toward the plate. Upon installation in sterile cell culture hood, the power of the system was measured at approximately 6-7 mW using a Scientech laser power meter. Prior to experimentation, the hood and irradiation apparatus was sterilized with 254 nm germicidal UV irradiation overnight. Using this setup, 100 μM of 4,5-dimethoxy-2-nitrobenyl alcohol (DMNA), photodoxazolidine R═H, and glucose-PEG-photodoxazoldine were irradiated in individual wells of a 24-well plate. Initially, 50 μL of a DMSO stock was diluted with 950 μL of PBS and aliquots of 50 μL were removed at various times (0-180 min), mixing by pipetting each time. The timepoints were analyzed by HPLC (method 2) and plotted as fractional conversion versus time. […] Therefore, a second experiment was performed in which the PBS was replaced with 1:1 acetonitrile:water. With this system of 5% DMSO/47.5% acetonitrile/47.5% water, no visible precipitation was produced over the course of the reaction.
The measured quantum yield of 0.002 for photodoxazolidine R═H (above) was lower than expected, which raised the possibility that the presence of the anthraquinone ring complex in the prodrugs was inhibiting photocleavage by quenching the activated state. To test whether this, the irradiation kinetics of DMNA (4, 5-dimethoxy-2-nitrobenzyl alcohol) was compared against photodoxazolidine R═H, which contains the DMNA unit as the photoactivating group. Additionally, glucose-PEG-photodoxazoldine was included for comparison; a synthetic precursor to this compound, azido-PEG-photodoxazolidine, is suspected of having a quantum yield of 0.01-0.02, which is 5-10-fold larger than photodoxazolidine. Irradiation was performed in 24-well cell culture dishes using the cell culture irradiation system described above with the soft-glass high-pass filter. […] In both cases, photodoxazolidine was the slowest to produce dox from the irradiation. In line with its quantum yield, glucose-PEG-photodoxazolidine reacted 4-5-fold faster than photodoxazolidine. However, DMNA was by far the fastest to undergo photochemistry in this system, converting to product approximately 30-fold faster than photodoxazolidine.

COc1cc(COC(=O)N2COC3C(C)OC(OC4CC(O)(C(=O)CO)Cc5c(O)c6c(c(O)c54)C(=O)c4c(OC)cccc4C6=O)CC32)c([N+](=O)[O-])cc1OC (stereo not shown) [Photodoxazolidine]
k in ACN: H2O, relative rate constant for photocleavage (100 μM, 1:1 acetonitrile:water, near UV 350 nm): 0.0069 min⁻¹ | k in PBS, relative rate constant for photocleavage (100 μM, PBS, near UV 350 nm): 0.0026 min⁻¹ | k in ACN: H2O, fold over photodoxazolidine (1:1 acetonitrile:water): (1.0) | k in PBS, fold over photodoxazolidine (PBS): (1.0)
